In US20030022158A1, “Peptides from the TT virus sequence and monospecific antibodies binding to the TT virus” (priority 1999, published 2003):

Tested on: human IgG antibodies in human serum samples
Test: EIA of human antibody reactivities to overlapping synthetic peptides of TTV ORF1 and ORF2 (Tables 2 and 3)
Assay type: binding
Conditions: human serum sample 1, negative for TTV DNA by PCR; serum diluted 1:100; OD over 0.500 considered positive
Excerpt: Overlapping peptides (18 amino acids in length containing an 8 amino acid overlap) corresponding to regions of the ORFI and ORF2 of TTV (TABLE 1; Genebank accession no AB008394) were produced by a multiple peptide synthesizer (Syro, Syntex, Germany) using standard Fmoc chemistry (Sallberg et al., Immunology Letters, 30:59 68 (1991), herein expressly incorporated by reference in its entirety).
(§1) The EIAs used to identify which peptides interacted with human sera followed protocols known in the art. (See Zhang et al., J Gen Virol, 78:2735-2746 (1997), herein expressly incorporated by reference in its entirety). Briefly, microplates (Nunc, Denmark) were coated for 48 hours with synthetic peptides at a concentration of 10 μg/ml in 0.05M sodium carbonate buffer pH 9.6. After blocking for 2 hours at room temperature with phosphate buffered saline containing 1% bovine serum albumin, 2% goat serum and 0.05% Tween 20 (dilution buffer) the plates were incubated with human sera diluted 1:100 in dilution buffer. Bound human IgG was detected by incubation with anti-human IgG antibodies conjugated to alkaline phosphatase (Sigma Chemicals, St. Louis, Mo.). The plates were developed by the addition of […] (Sigma) and the optical densities were determined at 405 nm.

Point of comparison: “21: overlapping synthetic peptide of TTV ORF1 (TATTTTYAYPGTNRP) [compound 21]”, “optical density (OD) at 405 nm” value 0.00 OD. Against it:
- PDEKSQREILLNKIASY (Peptide Immunogen) [compound 29, overlapping synthetic peptide of TTV ORF1] — higher, 0.42 OD

Same assay, conditions: human serum sample 2, negative for TTV DNA by PCR; serum diluted 1:100; OD over 0.500 considered positive

Point of comparison: “21: overlapping synthetic peptide of TTV ORF1 (TATTTTYAYPGTNRP) [compound 21]”, “optical density (OD) at 405 nm” value 0.00 OD. Against it:
- PDEKSQREILLNKIASY (Peptide Immunogen) [compound 29, overlapping synthetic peptide of TTV ORF1] — higher, 0.36 OD

Same assay, conditions: human serum sample 3, negative for TTV DNA by PCR; serum diluted 1:100; OD over 0.500 considered positive

Point of comparison: “PDEKSQREILLNKIASY (Peptide Immunogen) [compound 29, overlapping synthetic peptide of TTV ORF1]”, “optical density (OD) at 405 nm” value 0.45 OD. Against it:
- 21: overlapping synthetic peptide of TTV ORF1 (TATTTTYAYPGTNRP) [compound 21] — lower, 0.00 OD

Same assay, conditions: human serum sample 4, negative for TTV DNA by PCR; serum diluted 1:100; OD over 0.500 considered positive

Point of comparison: “21: overlapping synthetic peptide of TTV ORF1 (TATTTTYAYPGTNRP) [compound 21]”, “optical density (OD) at 405 nm” value 0.00 OD. Against it:
- PDEKSQREILLNKIASY (Peptide Immunogen) [compound 29, overlapping synthetic peptide of TTV ORF1] — higher, 0.53 OD

Same assay, conditions: human serum sample 5, negative for TTV DNA by PCR; serum diluted 1:100; OD over 0.500 considered positive

Point of comparison: “21: overlapping synthetic peptide of TTV ORF1 (TATTTTYAYPGTNRP) [compound 21]”, “optical density (OD) at 405 nm” value 0.00 OD. Against it:
- PDEKSQREILLNKIASY (Peptide Immunogen) [compound 29, overlapping synthetic peptide of TTV ORF1] — higher, 0.22 OD

Same assay, conditions: human serum sample 6, negative for TTV DNA by PCR; serum diluted 1:100; OD over 0.500 considered positive

Point of comparison: “21: overlapping synthetic peptide of TTV ORF1 (TATTTTYAYPGTNRP) [compound 21]”, “optical density (OD) at 405 nm” value 0.00 OD. Against it:
- PDEKSQREILLNKIASY (Peptide Immunogen) [compound 29, overlapping synthetic peptide of TTV ORF1] — higher, 0.95 OD

Same assay, conditions: human serum sample 7, negative for TTV DNA by PCR; serum diluted 1:100; OD over 0.500 considered positive

Point of comparison: “21: overlapping synthetic peptide of TTV ORF1 (TATTTTYAYPGTNRP) [compound 21]”, “optical density (OD) at 405 nm” value 0.00 OD. Against it:
- PDEKSQREILLNKIASY (Peptide Immunogen) [compound 29, overlapping synthetic peptide of TTV ORF1] — higher, 0.29 OD

Same assay, conditions: human serum sample 9, positive for TTV DNA by PCR; serum diluted 1:100; OD over 0.500 considered positive

Point of comparison: “21: overlapping synthetic peptide of TTV ORF1 (TATTTTYAYPGTNRP) [compound 21]”, “optical density (OD) at 405 nm” value 0.00 OD. Against it:
- PDEKSQREILLNKIASY (Peptide Immunogen) [compound 29, overlapping synthetic peptide of TTV ORF1] — higher, 0.21 OD

Same assay, conditions: human serum sample 11, negative for TTV DNA by PCR; serum diluted 1:100; OD over 0.500 considered positive

Point of comparison: “PDEKSQREILLNKIASY (Peptide Immunogen) [compound 29, overlapping synthetic peptide of TTV ORF1]”, “optical density (OD) at 405 nm” value 0.14 OD. Against it:
- 21: overlapping synthetic peptide of TTV ORF1 (TATTTTYAYPGTNRP) [compound 21] — lower, 0.00 OD

Same assay, conditions: human serum sample 18, positive for TTV DNA by PCR; serum diluted 1:100; OD over 0.500 considered positive

Point of comparison: “21: overlapping synthetic peptide of TTV ORF1 (TATTTTYAYPGTNRP) [compound 21]”, “optical density (OD) at 405 nm” value 0.00 OD. Against it:
- PDEKSQREILLNKIASY (Peptide Immunogen) [compound 29, overlapping synthetic peptide of TTV ORF1] — higher, 0.11 OD

Same assay, conditions: human serum sample 36, positive for TTV DNA by PCR; serum diluted 1:100; OD over 0.500 considered positive

Point of comparison: “21: overlapping synthetic peptide of TTV ORF1 (TATTTTYAYPGTNRP) [compound 21]”, “optical density (OD) at 405 nm” value 0.00 OD. Against it:
- PDEKSQREILLNKIASY (Peptide Immunogen) [compound 29, overlapping synthetic peptide of TTV ORF1] — higher, 0.09 OD

Same assay, conditions: human serum sample 48, positive for TTV DNA by PCR; serum diluted 1:100; OD over 0.500 considered positive

Point of comparison: “PDEKSQREILLNKIASY (Peptide Immunogen) [compound 29, overlapping synthetic peptide of TTV ORF1]”, “optical density (OD) at 405 nm” value 0.10 OD. Against it:
- 21: overlapping synthetic peptide of TTV ORF1 (TATTTTYAYPGTNRP) [compound 21] — lower, 0.00 OD

Same assay, conditions: human serum sample 98, positive for TTV DNA by PCR; serum diluted 1:100; OD over 0.500 considered positive

Point of comparison: “PDEKSQREILLNKIASY (Peptide Immunogen) [compound 29, overlapping synthetic peptide of TTV ORF1]”, “optical density (OD) at 405 nm” value 0.09 OD. Against it:
- 21: overlapping synthetic peptide of TTV ORF1 (TATTTTYAYPGTNRP) [compound 21] — lower, 0.00 OD

Same assay, conditions: human serum sample 110, positive for TTV DNA by PCR; serum diluted 1:100; OD over 0.500 considered positive

Point of comparison: “21: overlapping synthetic peptide of TTV ORF1 (TATTTTYAYPGTNRP) [compound 21]”, “optical density (OD) at 405 nm” value 0.00 OD. Against it:
- PDEKSQREILLNKIASY (Peptide Immunogen) [compound 29, overlapping synthetic peptide of TTV ORF1] — higher, 0.25 OD

Same assay, conditions: human serum sample 155, positive for TTV DNA by PCR; serum diluted 1:100; OD over 0.500 considered positive

Point of comparison: “21: overlapping synthetic peptide of TTV ORF1 (TATTTTYAYPGTNRP) [compound 21]”, “optical density (OD) at 405 nm” value 0.00 OD. Against it:
- PDEKSQREILLNKIASY (Peptide Immunogen) [compound 29, overlapping synthetic peptide of TTV ORF1] — higher, 0.59 OD

Same assay, conditions: human serum sample 157, positive for TTV DNA by PCR; serum diluted 1:100; OD over 0.500 considered positive

Point of comparison: “21: overlapping synthetic peptide of TTV ORF1 (TATTTTYAYPGTNRP) [compound 21]”, “optical density (OD) at 405 nm” value 0.00 OD. Against it:
- PDEKSQREILLNKIASY (Peptide Immunogen) [compound 29, overlapping synthetic peptide of TTV ORF1] — higher, 0.62 OD

Same assay, conditions: tested human sera, EIA

For “PDEKSQREILLNKIASY (Peptide Immunogen) [compound 29, overlapping synthetic peptide of TTV ORF1]”, the “human reactivity to peptide (reactive peptides within ORF1)” value was “Reactive”.

Tested on: human antibodies in human serum samples
Test: EIA reactivities of three human serum samples with deletion and alanine substitution analogues of SEQ ID NO: 1 (Table 6)
Assay type: binding
Conditions: human serum sample P4; positive = more than 50% of the reactivity of the original peptide
Procedure: as §1
The reactivity to the TATTTTYAYPGTNRPPV (SEQ ID NO: 1) peptide was further characterized by mapping the reactivity of deletion and substitution peptide analogues.

Point of comparison: “PDEKSQREILLNKIASY (Peptide Immunogen) [compound 29, overlapping synthetic peptide of TTV ORF1]”, “OD at 405 nm, reactivity of human serum sample P4” value 0.142 OD. Against it:
- 21: overlapping synthetic peptide of TTV ORF1 (TATTTTYAYPGTNRP) [compound 21] — lower, 0.100 OD

Same assay, conditions: human serum sample P7; positive = more than 50% of the reactivity of the original peptide

Point of comparison: “21: overlapping synthetic peptide of TTV ORF1 (TATTTTYAYPGTNRP) [compound 21]”, “OD at 405 nm, reactivity of human serum sample P7” value 0.099 OD. Against it:
- PDEKSQREILLNKIASY (Peptide Immunogen) [compound 29, overlapping synthetic peptide of TTV ORF1] — higher, 0.105 OD

Same assay, conditions: human serum sample P36; positive = more than 50% of the reactivity of the original peptide

Point of comparison: “21: overlapping synthetic peptide of TTV ORF1 (TATTTTYAYPGTNRP) [compound 21]”, “OD at 405 nm, reactivity of human serum sample P36” value 0.078 OD. Against it:
- PDEKSQREILLNKIASY (Peptide Immunogen) [compound 29, overlapping synthetic peptide of TTV ORF1] — lower, 0.076 OD
